For test [1] the following is noted: systemic administration to obese, leptin deficient mice; cited from earlier work.
The conditions of test [2]: intracerebroventricular to rats; cited from earlier work.
The next test deals with T1, human PrCP (Homo sapiens, UniProt P42785).
T1 construct: made in house
T1 sequence (P42785 46-496): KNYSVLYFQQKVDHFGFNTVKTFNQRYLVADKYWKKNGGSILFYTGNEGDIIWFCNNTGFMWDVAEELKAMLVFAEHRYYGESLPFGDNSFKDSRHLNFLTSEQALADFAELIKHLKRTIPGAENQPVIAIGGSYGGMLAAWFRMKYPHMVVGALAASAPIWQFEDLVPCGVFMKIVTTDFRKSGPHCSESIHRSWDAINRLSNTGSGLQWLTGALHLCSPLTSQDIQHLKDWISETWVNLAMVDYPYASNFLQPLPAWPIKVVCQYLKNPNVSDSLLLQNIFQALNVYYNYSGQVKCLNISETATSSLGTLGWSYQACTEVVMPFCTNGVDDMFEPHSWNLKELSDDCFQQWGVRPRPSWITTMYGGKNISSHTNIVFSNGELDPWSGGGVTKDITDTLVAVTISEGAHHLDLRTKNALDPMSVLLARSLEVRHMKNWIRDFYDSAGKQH
In words: Prolylcarboxypeptidase (PRCP) enzyme activity assay, fluorescence intensity kinetic assay. Format: biochemical. Here is the method:
The potency of compounds of formula I against PrCP was determined by a fluorescence intensity kinetic assay measuring the IC50 values of PrCP inhibitor test compounds. […] The assay was run on a Perkin. […] The assay was performed using a Hamilton Star liquid handling workstation. The assay employed the internally quenched fluorescent substrate (1S)-1-carboxy-5-[(2,4-dinitrophenyl)amino]pentyl [(7-methoxy-2-oxo-2H-chromen-4-yl)acetyl]-L-alanyl-L-prolinate prepared in house. The assay was run in a 384-well microtiter plate at 37° C. with a total volume of 50 uL. […] The assay also contained 2% DMSO used to solubilize the substrate and inhibitor. Inhibitors were prepared in 100% DMSO and serial diluted (in 100% DMSO) to generate 11 point titration curves. Either 39 uL of human or mouse PrCP enzyme was added to the wells of the assay plate, followed by a 1 uL addition of the serially diluted inhibitor and mixed three times using a 30 uL mix volume. The reaction was initiated by the addition of 10 uL substrate and mixed three times using a 30 uL mix volume. The reactions were monitored continuously over 25 min at 37° C. to obtain initial velocities. IC50 values were calculated by comparing the resulting rates of reaction of the inhibited and control initial velocities.
The enzymes were diluted in a mixture of 10 mM NaOAc (pH 5.5)/100 mM NaCl buffer containing 25 ug/mL bovine serum albumin that had been warmed to 37° C. in a water bath. The PrCP inhibitor test compounds were plated in 100% DMSO with a highest concentration of 500 uM. There were 12 dilution points for each compound tested including a blank with DMSO only. […] Likewise, two control compounds were similarly titrated and included in each assay, with final starting concentrations starting at 10,000 nM and 200 nM, respectively. […] The substrate was solubilized in 100% DMSO prior to dilution into the assay.

[3] abbreviates: recombinant human PrCP, cell line CHO, read-out: Human PRCP Enzyme Inhibition IC50.

Structures can show the parent of a compound that is named as a salt. Where two headings read alike, the source gives them in different places.

Our source for the overnight food intake and IC50 values is patent US8921394B2, “Prolylcarboxypeptidase inhibitors” (Merck Sharp & Dohme Corp., priority 2010, dated 2014).

As for t-butyl carbamate-prolyl prolinal [BPP], the overnight food intake entry in test [1] and in test [2] was “suppression of overnight food intake” throughout. The term IC50 denotes the concentration that inhibits the measured activity by half. For the compound `Fc1ccc([C@@H]2CN(CCc3ccccc3)CC[C@H]2c2n[nH]c(-c3ccc(Cl)cc3)n2)cc1` (relative stereo) [Example 20, (3R*,4R*)-4-[5-(4-chlorophenyl)-1H-1,2,4-triazol-3-yl]-3-(4-fluorophenyl)-1-phenethyl-piperidine trifluoroacetate salt], the IC50 at human PrCP (setting [3]) was 50.9 nM. Still for that read-out and setting: the figure for `Fc1ccc(-c2cc([C@@H]3CCN(CCc4ccccc4)C[C@H]3c3ccc(F)cc3)n[nH]2)cc1` (relative stereo) [Example 11, (3R*,4R*)-3-(4-fluorophenyl)-4-[5-(4-fluorophenyl)-1H-pyrazol-3-yl]-1-phenethyl-piperidine trifluoroacetate salt] is 2.3 nM. Consider `CC(C)(C)N1C[C@@H](c2cc(-c3ccc(Cl)cc3)[nH]n2)[C@H](c2ccc(F)cc2F)C1` [Example 13, 3-[(3S,4R)-1-tert-butyl-4-(2,4-difluorophenyl)pyrrolidin-3-yl]-5-(4-chlorophenyl)-1H-pyrazole trifluoroacetate salt], for which, on human PrCP (recombinant human PrCP, cell line HEK, read-out: Human PRCP Enzyme Inhibition IC50), the IC50 came to 413 nM. For `N#Cc1cccc(-c2cc([C@@H]3CCN(CCc4ccccc4)C[C@H]3c3ccc(F)cc3)n[nH]2)c1` (relative stereo) [Example 12, 3-[3-[(3R*,4R*)-3-(4-fluorophenyl)-1-phenethyl-4-piperidyl]-1H-pyrazol-5-yl]benzonitrile triflizoroacetate salt], on human PrCP (setting [3]), the IC50 was 7.9 nM. `Clc1ccc(CCN2CCC(c3ccccc3)(c3cc(-c4ccc(Cl)cc4)[nH]n3)CC2)cc1` [Example 6, 1-[2-(4-chlorophenyl)ethyl]-4-[5-(4-chlorophenyl)-1H-pyrazol-3-yl]-4-phenyl-piperidine trifluoroacetate salt] came in with an IC50 against human PrCP of 175 nM. Still for that read-out and setting: the figure for `Cn1nc(C2(c3ccccn3)CCN(CCc3ccccc3)CC2)cc1-c1ccc(F)cc1` [Example 3, 2-[4-[5-(4-fluorophenyl)-1-methyl-pyrazol-3-yl]-1-phenethyl-4-piperidyl]pyridine bis(trifluoroacetate) salt] is 498 nM.
